# Source: patent publication US20130287688A1, “NOVEL COMPOSITIONS AND USES OF ANTI-HYPERTENSION AGENTS FOR CANCER THERAPY” (XTUIT PHARMACEUTICALS, INC., priority 2010, published 2013)
# Legend:
# 4T1 breast tumors = assay: Breast tumor growth and survival studies; type: in vivo, mice
# Description: In FIG. 35B, the quantification of tumor growth rates, based on the time to reach double the initial volume, is shown.
# In FIG. 35C, the animal survival following the initiation of treatment is shown. […] Statistical tests were corrected for multiple comparisons using the Holm-Bonferroni method.
# (§1) Breast tumor growth and survival studies: Mice bearing orthotopic E0771 or 4T1 breast tumors were split into treatment groups, time-matched for time after implantation and size-matched for tumor volume at this time (110-111 mm^3 in E0771, in 4T1). […] The primary tumors were then measured every 2 days, beginning on day 0, using calipers. Tumor growth was quantified using the time for each to reach double its initial volume Animal survival was quantified based on time of death after initiation of treatment or time to reach excessive tumor burden (>1000 mm^3).
# E0771 breast tumors [1] = assay: Breast tumor growth and survival studies; type: in vivo, mice
# Protocol: as §1
# tumors = assay: Solid stress after a panel of ARBs; type: in vivo; conditions: 40 mg/kg losartan, 3.2 mg/kg candesartan, 32 mg/kg valsartan
# Protocol: Solid stress levels in tumors after angiotensin inhibition using the ARBs losartan, candesartan, and valsartan are shown. Doses were chosen based on their relative doses in patients for hypertension indications (40 mg/kg losartan, 3.2 mg/kg candesartan, 32 mg/kg valsartan). […] Animal numbers n=6-7. Statistical tests were corrected for multiple comparisons using the Holm-Bonferroni method.
# The mechanism responsible for the increase in tumor vessel perfusion by losartan was investigated. Desmoplasia, high stromal cell and matrix density, is a major contributor to the solid stress accumulation that compresses vessels (Stylianopoulos T, et al., Growth-induced mechanical stress in murine and human tumors: causes, consequences and remedies. under review. 2012). Since angiotensin inhibitors reduce matrix production in tumors (Diop-Frimpong B, et al., Proc Natl Acad Sci USA. 2011; 108(7): 2909-14), it was hypothesized that they decompress vessels and increase perfusion by decreasing solid stress. Collagen levels were used as a metric of matrix production as described in Diop-Frimpong et al., Proc Nall Acad Sci USA. […] Moreover, losartan decreased collagen I concentration, measured based on staining intensity, in E0771 and AK4.4 tumors (FIGS. 24B-24C). Of note, dense collagen seemed to colocalize with low-perfusion areas (FIG. 24C). Next, solid stress in these tumors was measured using recently established technique described in Stylianopoulos T, et al., Growth-induced mechanical stress in murine and human tumors: causes, consequences and remedies. under review. 2012. […]
# Solid stress: Solid stress was measured using the tumor opening technique as described previously (Stylianopoulos T, et al., Growth-induced mechanical stress in murine and human tumors: causes, consequences and remedies. under review. 2012). […] Subsequently, each tumor was excised, washed with Hanks' Balanced Salt Solution (HBSS) and its three dimensions were measured. […] Afterwards, the opening resulting from the cut was measured at the middle of the cut at the surface of the tumor. […]
# E0771 tumors = assay: Solid stress (tumor opening technique); parameters: species or system mice; conditions: mouse, in vivo
# Protocol: Solid stress was assessed using an ex vivo technique involving the measurement of the extent of tumor tissue relaxation (tumor opening relative to tumor diameter) following a stress-releasing incision, with larger openings indicating higher stress.
# When the tumors reached a size of −1 cm in diameter, the mice were anesthetized. Subsequently, each tumor was excised, washed with Hanks' Balanced Salt Solution (HBSS) and its three dimensions were measured. Each tumor was cut along its longest axis, to a depth of 80% of its shortest dimension, using a scalpel. The tumors were allowed to relax for 10 minutes in HBSS to diminish any transient, poro-elastic responses. Afterwards, the opening resulting from the cut was measured at the middle of the cut at the surface of the tumor. Solid stress is proportional to the size of the opening relative to the size of the dimension perpendicular to the cut.
# E0771 breast tumors [2] = assay: Tumor matrix level histology (collagen I); parameters: species or system SCID mouse; conditions: mouse, in vivo
# Protocol: Collagen levels were used as a metric of matrix production as described in Diop-Frimpong et al., Proc Nall Acad Sci USA. […] Next, solid stress in these tumors was measured using recently established technique described in Stylianopoulos T, et al., Growth-induced mechanical stress in murine and human tumors: causes, consequences and remedies. under review.
# Vessel perfusion, matrix level, and hypoxia histology: For breast tumors, mice bearing orthotopic E0771 were split into treatment groups, time-matched for time after implantation and size-matched for tumor volume at this time (−100 mm^3). For pancreatic tumors, mice bearing orthotopic AK4.4 were split into treatment groups, size-matched for tumor volume (˜22 mm^3), 6 days after implantation. […] On the day of the last treatment, mice were slowly (−2 min) injected with 100 μL of 1 mg/mL biotinylated lectin (Vector Labs), administered retro-orbitally 5 min prior to tumor removal. For hypoxia studies, the mice were also injected with 60 mg/kg of 10 mg/mL pimonidazole 1 hr prior to tumor removal. […] For matrix staining, collagen I was detected using the LF-67 antibody provided by Dr. Larry Fisher (National Institute of Dental Research, Bethesda, Md.).
# Histological image analysis: Eight random images (four interior, four periphery) at 20× magnification were taken from each slide using a confocal microscope (Olympus). […] For perfusion, the number of vessels counted by this program with colocalization of lectin and CD31 staining was divided by the number of vessels counted with CD31 staining. For vessel metrics, including diameter and density, the program determined the average size of all counted vessels and their length, as well as the count per area Images of collagen I stained sections were analyzed based on the area fraction of positive staining and on the average staining intensity (concentration) in each image. […] Images of hypoxia staining with pimonidazole were similarly analyzed for the area fraction of positive staining, counting the fraction of pixels above a threshold based on background intensity.
# [3] = agent given alone (losartan 40 mg/kg daily or doxorubicin 2 mg/kg every three days)
compound,measurement,setting,value
COc1cccc2c1C(=O)c1c(O)c3c(c(O)c1C2=O)C[C@@](O)(C(=O)CO)C[C@@H]3O[C@H]1C[C@H](N)[C@H](O)[C@H](C)O1 [doxorubicin],tumor growth rate,4T1 breast tumors; [3],no significant effect
same,survival,4T1 breast tumors; monotherapy,improves survival
same,tumor growth rate,E0771 breast tumors [1]; [3],no significant effect
same,median survival,E0771 breast tumors [1]; doxorubicin alone,16 days
CCOc1nc2cccc(C(=O)O)c2n1Cc1ccc(-c2ccccc2-c2nnn[nH]2)cc1 [candesartan],solid stress,tumors,reduce solid stress to a similar degree
CCCCC(=O)N(Cc1ccc(-c2ccccc2-c2nnn[nH]2)cc1)[C@H](C(=O)O)C(C)C [valsartan],solid stress,tumors,reduce solid stress to a similar degree
NCCCC[C@H](N[C@@H](CCc1ccccc1)C(=O)O)C(=O)N1CCC[C@H]1C(=O)O [lisinopril],solid stress,E0771 tumors,reduces solid stress
same,"matrix production, collagen I area fraction",E0771 breast tumors [2],decreases
